ChEMBL document CHEMBL1148388, “Restriction of a peptide turn conformation and conformational analysis of guanidino group using arginine-proline fused amino acids: application to mini atrial natriuretic peptide on binding to the receptor” (J Med Chem, 2004)

Experiment: Effective concentration required for production of cGMP in Chinese hamster ovary cells expressing natriuretic peptide receptor A (NPR-A)
Type: functional, cell-based

CC[C@H](C)[C@@H]1NC(=O)[C@@H](CCCN=C(N)N)NC(=O)[C@H](CC(=O)O)NC(=O)[C@@H](CCSC)NC(=O)[C@H](CCCN=C(N)N)NC(=O)CNC(=O)CNC(=O)[C@@H](Cc2ccccc2)NC(=O)[C@H](Cc2c[nH]cn2)NC(=O)[C@@H](NC(=O)[C@@H](N)CCSC)CSSC[C@H](C(=O)N[C@@H](Cc2ccc(O)cc2)C(=O)N[C@@H](CCCN=C(N)N)C(N)=O)NC(=O)[C@@H](CO)NC1=O [MiniANP]
EC50: 3.1 nM
